Reference: ChEMBL document CHEMBL4265906, “Synthesis and biological evaluation of isoxazolyl-sulfonamides: A non-cytotoxic scaffold active against Trypanosoma cruzi, Leishmania amazonensis and Herpes Simplex Virus” (Bioorg Med Chem Lett, 2018)
The source made the active and inactive calls. No cut-off for these calls is given here.

How the values were obtained:
Human alphaherpesvirus 1 [1] = test: Antiviral activity against […] HSV1 KOS infected in African green monkey Vero cells assessed as inhibition of viral replication after 48 hrs by naphthol blue-black staining-based assay; type: functional, organism-based
[2] = Selectivity index, ratio of CC50 for African green monkey Vero cells to IC50 for HSV1 KOS; type: toxicity; details: read-out: Ratio CC50/IC50
Human alphaherpesvirus 1 [3] = test: Antiviral activity against […] HSV1 KOS infected in African green monkey Vero cells assessed as inhibition of viral replication at 100 uM after 48 hrs by naphthol blue-black staining-based assay; type: functional; details: for inhibition at 100 µM: Human alphaherpesvirus 1, KOS
Trypanosoma cruzi [4] = test: Trypanocidal activity against Trypanosoma cruzi Tulahuen trypomastigotes infected in human THP1 cells assessed as growth inhibition at 50 uM after 48 hrs by chlorophenolred-beta-d-galactopyranoside/Nonidet P-40 reagent-based assay; type: functional; details: for inhibition of growth at 50 µM: THP-1, 48 h, read-out: GI
Trypanosoma cruzi [5] = test: Trypanocidal activity against Trypanosoma cruzi Tulahuen trypomastigotes infected in human THP1 cells assessed as growth inhibition after 48 hrs by chlorophenolred-beta-d-galactopyranoside/Nonidet P-40 reagent-based assay; type: functional
Leishmania amazonensis [6] = test: Leishmanicidal activity against Leishmania amazonensis MHOM/BR/77/LTB0016 amastigotes infected in human THP1 cells assessed as growth inhibition at 50 uM after 48 hrs by chlorophenolred-beta-d-galactopyranoside/Nonidet P-40 reagent-based assay; type: functional; details: for inhibition of growth at 50 µM: MHOM/BR/77/LTB0016, THP-1, 48 h, read-out: GI
[7] = Cytotoxicity against human THP1 cells assessed as reduction in cell viability by MTT assay; type: cell-based; details: THP-1 cells
[8] = Cytotoxicity against African green monkey Vero cells assessed as reduction in cell viability after 48 hrs by sulforhodamine B assay; type: cell-based; details: chlorocebus sabaeus
[9] = Selectivity index, ratio of CC50 for human THP1 cells to G150 for Trypanosoma cruzi Tulahuen trypomastigotes; type: toxicity; details: THP-1 cells, read-out: Selectivity Index
[10] = Cytotoxicity against human A549 cells assessed as reduction in cell viability after 48 hrs by sulforhodamine B assay; type: cell-based
[11] = Cytotoxicity against human HCT8 cells assessed as reduction in cell viability after 48 hrs by sulforhodamine B assay; type: cell-based; details: HCT-8 cells
Leishmania amazonensis [12] = test: Leishmanicidal activity against Leishmania amazonensis MHOM/BR/77/LTB0016 amastigotes infected in human THP1 cells assessed as growth inhibition at 2 uM after 48 hrs by chlorophenolred-beta-d-galactopyranoside/Nonidet P-40 reagent-based assay; type: functional; details: MHOM/BR/77/LTB0016, THP-1, 48 h, read-out: GI
Trypanosoma cruzi [13] = test: Trypanocidal activity against Trypanosoma cruzi Tulahuen trypomastigotes infected in human THP1 cells at 20 uM after 48 hrs by chlorophenolred-beta-d-galactopyranoside/Nonidet P-40 reagent-based assay; type: functional; details: THP-1, 48 h, read-out: GI
[14] = Human alphaherpesvirus 1, KOS, Vero, 48 h, read-out: IC50

Compound	IC50 (Human alphaherpesvirus 1 [1]; [14]) [µM]	IC50 (Human alphaherpesvirus 1 [1]; vero)	inhibition (Human alphaherpesvirus 1 [3])	inhibition of growth at 50 µM (Trypanosoma cruzi [4]) [%]	GI50 (Trypanosoma cruzi [5]; THP-1, 48 h) [µM]	inhibition of growth at 50 µM (Leishmania amazonensis [6]) [%]	inhibition at 100 µM (Human alphaherpesvirus 1 [3]) [%]	also measured
Nc1nc2c(ncn2COCCO)c(=O)[nH]1 [ACYCLOVIR]	1.29	–	–	–	–	–	–	selectivity ratio [2]: > 1500
Cc1ccc(S(=O)(=O)NCc2cc(-c3ccc([N+](=O)[O-])cc3)no2)cc1	–	Not Active	inactive	9.8	> 50	9.3	–	–
COc1ccc(-c2cc(CNS(=O)(=O)c3ccc(F)cc3)on2)cc1OC	> 100	–	–	72.8	42.4	6.6	22.8	CC50 [7]: 300 µM; CC50 at 48 h [8]: 397 µM; selectivity ratio [9]: 7.1; CC50 at 48 h [10]: 327 µM; CC50 at 48 h [11]: 374 µM
O=S(=O)(NCc1cc(-c2ccccc2)no1)c1ccc(Cl)cc1	> 100	–	–	16.6	> 50	17.2	17.8	–
COc1ccc(-c2cc(CNS(=O)(=O)c3ccc(C)cc3)on2)cc1OC	–	Not Active	inactive	25.6	> 50	4.1	–	–
COc1ccc(-c2cc(CNS(=O)(=O)c3ccc([N+](=O)[O-])cc3)on2)cc1OC	–	Not Active	inactive	53.9	> 50	10.2	–	–
O=S(=O)(NCc1cc(-c2ccc3c(c2)OCO3)no1)c1ccc(F)cc1	173	–	–	–	–	12.8	70.1	selectivity ratio [2]: > 2.9; growth inhibition (GI) (Trypanosoma cruzi [4]): inactive; GI50 (Trypanosoma cruzi [5]): inactive
O=[N+]([O-])c1ccc(-c2cc(CNS(=O)(=O)c3ccc(Cl)cc3)on2)cc1	–	Not Active	inactive	–	–	2	–	growth inhibition (GI) (Trypanosoma cruzi [4]): inactive; GI50 (Trypanosoma cruzi [5]): inactive
COc1ccc(-c2cc(CNS(=O)(=O)c3ccc(Cl)cc3)on2)cc1OC	> 100	–	–	27.4	> 50	–	2	growth inhibition (GI) (Leishmania amazonensis [6]): inactive
O=[N+]([O-])c1ccc(-c2cc(CNS(=O)(=O)c3ccc([N+](=O)[O-])cc3)on2)cc1	–	Not Active	inactive	76.2	38.6	25.2	–	selectivity ratio [9]: > 12.9
O=[N+]([O-])c1ccc(-c2cc(CNS(=O)(=O)c3ccc(F)cc3)on2)cc1	–	Not Active	inactive	7.8	> 50	15.7	–	–
COc1ccc(-c2cc(CNS(=O)(=O)c3ccc(F)cc3)on2)cc1	87.4	–	–	44.5	> 50	14	100	selectivity ratio [2]: > 5.7
O=S(=O)(NCc1cc(-c2ccccc2)no1)c1ccc(F)cc1	> 100	–	–	–	–	13.2	40.2	growth inhibition (GI) (Trypanosoma cruzi [4]): inactive; GI50 (Trypanosoma cruzi [5]): inactive
Cc1ccc(S(=O)(=O)NCc2cc(-c3ccc4c(c3)OCO4)no2)cc1	> 100	–	–	–	–	11.4	19.1	CC50 [7]: > 500 µM; CC50 at 48 h [8]: > 500 µM; growth inhibition (GI) (Trypanosoma cruzi [4]): inactive; GI50 (Trypanosoma cruzi [5]): inactive; CC50 at 48 h [10]: 358 µM; CC50 at 48 h [11]: 437 µM
COc1ccc(-c2cc(CNS(=O)(=O)c3ccc([N+](=O)[O-])cc3)on2)cc1	137	–	–	85.8	14.3	48.7	60	selectivity ratio [2]: > 3.6; selectivity ratio [9]: > 34.8
O=[N+]([O-])c1ccc(S(=O)(=O)NCc2cc(-c3ccc4c(c3)OCO4)no2)cc1	> 100	–	–	86.3	11.6	43.4	25.3	CC50 [7]: 339 µM; CC50 at 48 h [8]: 387 µM; selectivity ratio [9]: 29.1; CC50 at 48 h [10]: 284 µM; CC50 at 48 h [11]: > 500 µM
C[C@@H]1[C@H](O)[C@@H](C)/C=C/C=C/C=C/C=C/C=C/C=C/C=C/[C@H](O[C@@H]2O[C@H](C)[C@@H](O)[C@H](N)[C@@H]2O)C[C@@H]2O[C@](O)(C[C@@H](O)C[C@@H](O)[C@H](O)CC[C@@H](O)C[C@@H](O)CC(=O)O[C@H]1C)C[C@H](O)[C@H]2C(=O)O [AMPHOTERICIN B]	–	–	–	–	–	–	–	inhibition of growth at 2 µM (Leishmania amazonensis [12]): 92.1%
COc1ccc(-c2cc(CNS(=O)(=O)c3ccc(Cl)cc3)on2)cc1	> 100	–	–	–	–	6.4	32	growth inhibition (GI) (Trypanosoma cruzi [4]): inactive; GI50 (Trypanosoma cruzi [5]): inactive
O=S(=O)(NCc1cc(-c2ccc3c(c2)OCO3)no1)c1ccc(Cl)cc1	–	Not Active	inactive	14.2	> 50	30.7	–	–
Cc1ccc(S(=O)(=O)NCc2cc(-c3ccccc3)no2)cc1	> 100	–	–	5.8	> 50	10.9	25.3	–
O=[N+]([O-])c1ccc(S(=O)(=O)NCc2cc(-c3ccccc3)no2)cc1	> 100	–	–	34	> 50	18.4	10.4	–
COc1ccc(-c2cc(CNS(=O)(=O)c3ccc(C)cc3)on2)cc1	95.9	–	–	–	–	2	65	CC50 [7]: > 500 µM; selectivity ratio [2]: > 3.4; CC50 at 48 h [8]: ≥ 331 µM; growth inhibition (GI) (Trypanosoma cruzi [4]): inactive; GI50 (Trypanosoma cruzi [5]): inactive; CC50 at 48 h [10]: > 500 µM; CC50 at 48 h [11]: > 500 µM
O=C(Cn1ccnc1[N+](=O)[O-])NCc1ccccc1 [BENZNIDAZOLE]	–	–	–	–	10.2	–	–	selectivity ratio [9]: > 49.1; inhibition of growth at 20 µM (Trypanosoma cruzi [13]): 96.6%
